Reference: ChEMBL document CHEMBL2074307, “Characterization of drug transport by the human multidrug resistance protein 3 (ABCC3)” (J Biol Chem, 2001)

Columns and labels:
[1] = molecular target: Multidrug resistance associated protein (Homo sapiens) (UniProt Q96QA9); test: (§1) TP_TRANSPORTER: uptake in membrane vesicle from MRP3-expressing Sf9 cells; assay type: functional, cell membranes
[2] = molecular target: Multidrug resistance associated protein (Homo sapiens) (UniProt Q96QA9); test: TP_TRANSPORTER: increase in Etoposide intracellular accumulation (Etoposide: 2 uM, Indomethacin: 500 uM) in MRP3-expressing fibroblast from kidney of mdr1a/1b and mrp1 (-/-) mouse; assay type: functional, cell-based; conditions: mdr1a/1b (-/-) and mrp1 (-/-) fibroblasts
[3] = molecular target: Multidrug resistance associated protein (Homo sapiens) (UniProt Q96QA9); test: TP_TRANSPORTER: increase in Etoposide intracellular accumulation (Etoposide: 2 uM, Sulfinpyrazone: 2000 uM) in MRP3-expressing fibroblast from kidney of mdr1a/1b and mrp1 (-/-) mouse; assay type: functional, cell-based; conditions: mdr1a/1b (-/-) and mrp1 (-/-) fibroblasts
[4] = molecular target: Multidrug resistance associated protein (Homo sapiens) (UniProt Q96QA9); test: TP_TRANSPORTER: efflux in MRP3-expressing fibroblast from kidney of mdr1a/1b and mrp1 (-/-) mouse; assay type: functional, cell-based; conditions: mdr1a/1b (-/-) and mrp1 (-/-) fibroblasts
[5] = substrate: COc1cc([C@@H]2c3cc4c(cc3[C@@H](O[C@@H]3O[C@@H]5CO[C@@H](C)O[C@H]5[C@H](O)[C@H]3O)[C@H]3COC(=O)[C@H]23)OCO4)cc(OC)c1O[C@@H]1O[C@H](C(=O)O)[C@@H](O)[C@H](O)[C@H]1O; test: as §1; assay type: functional, cell membranes
[6] = substrate: C[C@]12CC[C@@H]3c4ccc(O)cc4CC[C@H]3[C@@H]1CC[C@@H]2O[C@@H]1O[C@H](C(=O)O)[C@@H](O)[C@H](O)[C@H]1O; test: as §1; assay type: functional, cell membranes

**Q.** `N[C@@H](CCC(=O)N[C@@H](CS)C(=O)NCC(=O)O)C(=O)O` was tested. Which Activity [1] did it give?
**A.** is not a substrate [-]

**Q.** How did the Activity [2] turn out when `COc1ccc2c(c1)c(CC(=O)O)c(C)n2C(=O)c1ccc(Cl)cc1` was run?
**A.** inhibitor [[…] -> […] % of control (clone#38), 30 -> […] % of control (clone#77)]

**Q.** Which Activity [3] does the source give for `O=C1C(CC[S+]([O-])c2ccccc2)C(=O)N(c2ccccc2)N1c1ccccc1` (stereo unspecified) here?
**A.** inhibitor [18 -> 83 % of control (clone#38), 30 -> 77 % of control (clone#77)]

**Q.** Which Activity [4] does the source give for `COc1cc([C@@H]2c3cc4c(cc3[C@@H](O[C@@H]3O[C@@H]5CO[C@@H](C)O[C@H]5[C@H](O)[C@H]3O)[C@H]3COC(=O)[C@H]23)OCO4)cc(OC)c1O` here?
**A.** substrate [+]

B1: Multidrug resistance associated protein (Homo sapiens), Q96QA9 (protein)
chain: MDALCGSGELGSKFWDSNLSVHTENPDLTPCFQNSLLAWVPCIYLWVALPCYLLYLRHHCRGYIILSHLSKLKMVLGVLLWCVSWADLFYSFHGLVHGRAPAPVFFVTPLVVGVTMLLATLLIQYERLQGVQSSGVLIIFWFLCVVCAIVPFRSKILLAKAEGEISDPFRFTTFYIHFALVLSALILACFREKPPFFSAKNVDPNPYPETSAGFLSRLFFWWFTKMAIYGYRHPLEEKDLWSLKEEDRSQMVVQQLLEAWRKQEKQTARHKASAAPGKNASGEDEVLLGARPRPRKPSFLKALLATFGSSFLISACFKLIQDLLSFINPQLLSILIRFISNPMAPSWWGFLVAGLMFLCSMMQSLILQHYYHYIFVTGVKFRTGIMGVIYRKALVITNSVKRASTVGEIVNLMSVDAQRFMDLAPFLNLLWSAPLQIILAIYFLWQNLGPSVLAGVAFMVLLIPLNGAVAVKMRAFQVKQMKLKDSRIKLMSEILNGIKVLKLYAWEPSFLKQVEGIRQGELQLLRTAAYLHTTTTFTWMCSPFLVTLITLWVYVYVDPNNVLDAEKAFVSVSLFNILRLPLNMLPQLISNLTQASVSLKRIQQFLSQEELDPQSVERKTISPGYAITIHSGTFTWAQDLPPTLHSLDIQVPKGALVAVVGPVGCGKSSLVSALLGEMEKLEGKVHMKGSVAYVPQQAWIQNCTLQENVLFGKALNPKRYQQTLEACALLADLEMLPGGDQTEIGEKGINLSGGQRQRVSLARAVYSDADIFLLDDPLSAVDSHVAKHIFDHVIGPEGVLAGKTRVLVTHGISFLPQTDFIIVLADGQVSEMGPYPALLQRNGSFANFLCNYAPDEDQGHLEDSWTALEGAEDKEALLIEDTLSNHTDLTDNDPVTYVVQKQFMRQLSALSSDGEGQGRPVPRRHLGPSEKVQVTEAKADGALTQEEKAAIGTVELSVFWDYAKAVGLCTTLAICLLYVGQSAAAIGANVWLSAWTNDAMADSRQNNTSLRLGVYAALGILQGFLVMLAAMAMAAGGIQAARVLHQALLHNKIRSPQSFFDTTPSGRILNCFSKDIYVVDEVLAPVILMLLNSFFNAISTLVVIMASTPLFTVVILPLAVLYTLVQRFYAATSRQLKRLESVSRSPIYSHFSETVTGASVIRAYNRSRDFEIISDTKVDANQRSCYPYIISNRWLSIGVEFVGNCVVLFAALFAVIGRSSLNPGLVGLSVSYSLQVTFALNWMIRMMSDLESNIVAVERVKEYSKTETEAPWVVEGSRPPEGWPPRGEVEFRNYSVRYRPGLDLVLRDLSLHVHGGEKVGIVGRTGAGKSSMTLCLFRILEAAKGEIRIDGLNVADIGDPILFSGTLRMNLDPFGSYSEEDIWWALELSHLHTFVSSQPAGLDFQCSEGGENLSVGQRQLVCLARALLRKSRILVLDEATAAIDLETDNLIQATIRTQFDTCTVLTIAHRLNTIMDYTRVLVLDKGVVAEFDSPANLIAARGIFYGMARDAGLA
**Q.** Which results are given for B1?
**A.** Km [5]: 11.4 µM; Km [6]: 17.7 µM
